From US20080247991A1, “Solution Additives For the Attenuation of Protein Aggregation” (priority 2004, published 2008)

Key:
[1] = molecular target: T1, insulin binding to immobilized monoclonal anti-insulin (Homo sapiens, UniProt P01308); experiment: Surface plasmon resonance (Biacore 3000): globular protein association/dissociation kinetics in buffer with additive; conditions: for ka / kd: pH 7.4, estimated error 15%
T1 construct: purchased Sigma-Aldrich (insulin); Fitzgerald Industries (antibody) I8530; 10-130 clone M322214
T1 sequence (P01308 25-54 limits assumed): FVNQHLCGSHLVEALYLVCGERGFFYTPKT
T1 sequence (P01308 90-110 limits assumed): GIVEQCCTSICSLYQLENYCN
Description: Surface plasmon resonance experiments were conducted to measure the effect of added ArgHCl and GuHCl on the kinetics of globular protein association and dissociation versus an equimolar salt control (NaCl). The data set shown in the figure is a composition of 8 different concentration runs plus replicates, for a total of 16 runs. At t=140 sec, the flow cell with immobilized anti-insulin was exposed to a constant concentration of insulin in the range of 2 to 188 nM for 3 minutes. During this 3 minutes, the antibody and antigen were free to associate and dissociate. The net reaction is the binding of free antigen in solution, resulting in an increase in detector response proportional to the mass of antigen bound. At t=320 sec, the insulin concentration in the flow cell inlet is returned to zero, and the bound antigen then dissociates from the surface. All 16 runs were simultaneously fit to a binding model by minimizing the squared residuals to yield the association and dissociation rate constants, ka and kd. This process was repeated to yield association, dissociation, and equilibrium constant data for the model systems in various buffers as shown in Table 4.
Globular Protein Association Kinetics—Protein association and dissociation rate constants, ka and kd, were measured for globular proteins via surface plasmon resonance on a Biacore 3000 instrument. Monoclonal anti-insulin was immobilized on a Biacore CM5 sensor chip via amine coupling. The amount of immobilized antibody was selected to give a detector response in the range of 50-100 RU when antigen was present. A reference surface was created by activating and deactivating the surface without coupling an antibody to it.
Different concentrations of insulin in the nanomolar range ([…]) were prepared by dilution and injected serially into the antibody-containing and reference flow cells. […] Pocker, Y. & Biswas, Subhasis, B. (1981) Biochemistry 20, 4354-4361. The dissociation rate was sufficiently fast in buffer that a regeneration buffer was not required. Kinetic constants were extracted by simultaneous fitting of ka and kd to each set of sensorgrams using a 1:1 kinetic model in the BIAevaluation 3.0 software package.

carbonic anhydrase II [2] = molecular target: T2, carbonic anhydrase II (Bos taurus, UniProt P00921); experiment: Carbonic anhydrase refolding yield by esterase activity (pNPA); conditions: for α/α0 / α (refolding selectivity parameter, kr/kagg): 0.5 M additive, base buffer 0.5 M GuHCl; for α/α0: relative to 0.5M NaCl; for α (refolding selectivity parameter, kr/kagg): fit to second-order aggregation model; for order of yield of active protein as a function of buffer additive: equimolar (0.5M) additives
T2 sequence (P00921 whole entry): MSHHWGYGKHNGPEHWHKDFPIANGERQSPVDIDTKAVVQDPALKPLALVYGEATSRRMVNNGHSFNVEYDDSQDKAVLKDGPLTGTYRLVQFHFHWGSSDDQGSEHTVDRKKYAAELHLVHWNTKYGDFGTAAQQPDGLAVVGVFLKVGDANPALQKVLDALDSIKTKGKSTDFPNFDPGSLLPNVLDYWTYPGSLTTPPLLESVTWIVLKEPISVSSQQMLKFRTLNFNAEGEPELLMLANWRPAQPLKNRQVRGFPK
Description: Esterase activity assays were performed as a function of initial unfolded protein concentration and buffer composition to determine how equimolar concentrations of NaCl, ArgHCl, and GuHCl each affected refolding yield (FIG. 16).
High concentrations of carbonic anhydrase (>300 μM) were denatured in 6M GuHCl and equilibrated overnight. Refolding was initiated by dilution to 0.5M GuHCl with 50 mM Tris-HCl buffer, pH 7.5. This final GuHCl concentration was selected because it yields a mixture of active, refolded protein and aggregates. The distribution of this mixture was analyzed via esterase activity, size exclusion HPLC, and dynamic light scattering as described above.
Carbonic Anhydrase Esterase Activity—Esterase activity of carbonic anhydrase was assessed using para-nitrophenylacetate (pNPA) as the substrate as described previously. […] Briefly, 10 μl samples of carbonic anhydrase solution were added to 500 μl of Tris-HCl, pH 7.5 and 50 μl of 50 mM pNPA in acetonitrile. Kinetics of hydrolysis of pNPA was observed by the increase in absorbance at 400 nm due to the appearance of the paranitrophenolate ion (pNP^−). In all cases, the observed hydrolysis rate in absorbance units per second (AU/s) under these conditions was constant (pseudo-zero order). Hydrolysis rates were corrected for the hydrolysis of pNPA by the buffer for each type of buffer used. […] The active protein concentration data was reproducible to within 5-8% in replicated experiments.

carbonic anhydrase II [3] = molecular target: T2, carbonic anhydrase II; experiment: Size exclusion HPLC of multimers formed during refolding of carbonic anhydrase; design: purchased Sigma-Aldrich C2522; species or system bovine; conditions: for A2, percentage of total carbonic anhydrase / A3-5, percentage of total carbonic anhydrase / A6-15, percentage of total carbonic anhydrase / M (monomer), percentage of total carbonic anhydrase / Large multimers, percentage of total carbonic anhydrase: 0.5 M additive; for Large multimers, percentage of total carbonic anhydrase: inferred by difference
Description: Size exclusion HPLC experiments were performed to analyze the distribution of multimers formed during refolding. CA was refolded with three different additives, 0.5M NaCl, 0.5M GuHCl, and 0.5M ArgHCl, relative to a base refolding buffers of 0.5M GuHCl, as done in the esterase activity assays above. […] Other than this protein concentration difference, these experiments allow direct comparison of how an additional 0.5M of the three different cations affect refolding.
The samples were not filtered prior to introduction into the HPLC column.
Size Exclusion HPLC—Size exclusion HPLC (SE-HPLC) experiments were performed on a Beckman System Gold HPLC instrument equipped with a Tosohaas G3000SWXL size exclusion column and a UV detector. 30 μl samples were introduced to the column by a constant flow of 1 ml/min mobile phase. Each sample ran for 15 minutes, with carbonic anhydrase eluting between 6 and 10 minutes, depending on its molecular weight and buffer. […] A mixture of lysozyme, carbonic anhydrase, and bovine serum albumin (monomer and dimer) was used as a standard to calibrate molecular weight to retention time. Using this calibration curve and the breakthrough time of the column, the largest multimer that could pass through the column was a 15-mer. When significant mass was missing from a chromatogram, large multimers were quantitated by difference. The presence of large multimers was confirmed via turbidity or dynamic light scattering for each buffer. The instrument was cleaned with 30 μl injections of 4M GuHCl, a denaturing concentration found to dissociate and elute precipitates and large soluble carbonic anhydrase multimers.

[4] = molecular target: Human insulin (I8530), Sigma-Aldrich (human) (UniProt P01308); experiment: SPR; association rate constant in HBS-EP + 0.5 M ArgHCl relative to HBS-EP + 0.5 M NaCl
Chain of Human insulin (I8530), Sigma-Aldrich (human) (P01308 25-54 limits assumed, chain 1 of 2): as the sequence (P01308 25-54 limits assumed) above

[5] = molecular target: Human insulin (I8530), Sigma-Aldrich (human) (UniProt P01308); experiment: SPR, Biacore 3000, antibody immobilised on CM5, insulin as analyte, KD = kd/ka; HBS-EP + 0.5 M GuHCl
[6] = molecular target: Human insulin (I8530), Sigma-Aldrich (human) (UniProt P01308); experiment: SPR, Biacore 3000, antibody immobilised on CM5, insulin as analyte, KD = kd/ka; HBS-EP + 0.5 M ArgHCl
[7] = molecular target: Human insulin (I8530), Sigma-Aldrich (human) (UniProt P01308); experiment: SPR; dissociation rate constant in HBS-EP + 0.5 M ArgHCl relative to HBS-EP + 0.5 M NaCl
[8] = molecular target: Human insulin (I8530), Sigma-Aldrich (human) (UniProt P01308); experiment: SPR, Biacore 3000, antibody immobilised on CM5, insulin as analyte, 1:1 model; HBS-EP + 0.5 M ArgHCl
[9] = molecular target: Human insulin (I8530), Sigma-Aldrich (human) (UniProt P01308); experiment: SPR; association rate constant in HBS-EP + 0.5 M GuHCl relative to HBS-EP + 0.5 M NaCl
[10] = molecular target: Human insulin (I8530), Sigma-Aldrich (human) (UniProt P01308); experiment: SPR, Biacore 3000, antibody immobilised on CM5, insulin as analyte, 1:1 model; HBS-EP + 0.5 M NaCl
[11] = molecular target: Human insulin (I8530), Sigma-Aldrich (human) (UniProt P01308); experiment: SPR; dissociation rate constant in HBS-EP + 0.5 M GuHCl relative to HBS-EP + 0.5 M NaCl
[12] = molecular target: Human insulin (I8530), Sigma-Aldrich (human) (UniProt P01308); experiment: SPR, Biacore 3000, antibody immobilised on CM5, insulin as analyte, 1:1 model; HBS-EP + 0.5 M GuHCl
[13] = molecular target: Human insulin (I8530), Sigma-Aldrich (human) (UniProt P01308); experiment: SPR, Biacore 3000, antibody immobilised on CM5, insulin as analyte, KD = kd/ka; HBS-EP + 0.5 M NaCl
[14] = 0.5 M additive, relative to HBS-EP + 0.5 M NaCl
[15] = 0.5M, relative to 0.5M NaCl control

[Cl-].[Na+] [NaCl, sodium chloride]
ka ([1]; 0.5 M additive in HBS-EP): 44000 M⁻¹ s⁻¹
kd ([1]; 0.5 M additive in HBS-EP): 0.014 s⁻¹
α/α0 (carbonic anhydrase II [2]): 1
α (refolding selectivity parameter, kr/kagg) (carbonic anhydrase II [2]): 9.3 µM
order of yield of active protein as a function of buffer additive (carbonic anhydrase II [2]): NaCl<<ArgHCl<GuHCl
A2, percentage of total carbonic anhydrase (carbonic anhydrase II [3]; time 2 min, [U]0 = 5 μM): 0%
A3-5, percentage of total carbonic anhydrase (carbonic anhydrase II [3]; time 2 min, [U]0 = 5 μM): 0%
A6-15, percentage of total carbonic anhydrase (carbonic anhydrase II [3]; time 2 min, [U]0 = 5 μM): 0%
M (monomer), percentage of total carbonic anhydrase (carbonic anhydrase II [3]; time 2 min, [U]0 = 5 μM): 56%
Large multimers, percentage of total carbonic anhydrase (carbonic anhydrase II [3]; time 2 min, [U]0 = 5 μM): 44%
A2, percentage of total carbonic anhydrase (carbonic anhydrase II [3]; time 20 min, [U]0 = 5 μM): 0%
A3-5, percentage of total carbonic anhydrase (carbonic anhydrase II [3]; time 20 min, [U]0 = 5 μM): 0%
A6-15, percentage of total carbonic anhydrase (carbonic anhydrase II [3]; time 20 min, [U]0 = 5 μM): 0%
M (monomer), percentage of total carbonic anhydrase (carbonic anhydrase II [3]; time 20 min, [U]0 = 5 μM): 56%
Large multimers, percentage of total carbonic anhydrase (carbonic anhydrase II [3]; time 20 min, [U]0 = 5 μM): 44%
A2, percentage of total carbonic anhydrase (carbonic anhydrase II [3]; time 38 min, [U]0 = 5 μM): 0%
A3-5, percentage of total carbonic anhydrase (carbonic anhydrase II [3]; time 38 min, [U]0 = 5 μM): 0%
A6-15, percentage of total carbonic anhydrase (carbonic anhydrase II [3]; time 38 min, [U]0 = 5 μM): 0%
M (monomer), percentage of total carbonic anhydrase (carbonic anhydrase II [3]; time 38 min, [U]0 = 5 μM): 56%
Large multimers, percentage of total carbonic anhydrase (carbonic anhydrase II [3]; time 38 min, [U]0 = 5 μM): 44%

Cl.N=C(N)NCCC[C@H](N)C(=O)O [ArgHCl, arginine hydrochloride]
ka ([1]; 0.5 M additive in HBS-EP): 12000 M⁻¹ s⁻¹
kd ([1]; 0.5 M additive in HBS-EP): 0.022 s⁻¹
Kd ([1]; 0.5 M additive in HBS-EP, KD ≡ kd/ka): 1800 nM
ka/ka0 [1, 14]: 0.27
kd/kd0 [1, 14]: 1.6
effect on association rate of insulin and anti-insulin [1, 15]: slowed
effect on dissociation rate of insulin and anti-insulin [1, 15]: accelerated
α/α0 (carbonic anhydrase II [2]): 5.0
α (refolding selectivity parameter, kr/kagg) (carbonic anhydrase II [2]): 47 µM
order of yield of active protein as a function of buffer additive (carbonic anhydrase II [2]): NaCl<<ArgHCl<GuHCl
yield of monomeric protein (carbonic anhydrase II [3]; 0.5M added, versus 0.5M NaCl): significantly increased
average aggregate molecular weight (ignoring the monomer) (carbonic anhydrase II [3]; 0.5M additive, compared among the three buffers): lowest
A2, percentage of total carbonic anhydrase (carbonic anhydrase II [3]; time 2 min, [U]0 = 20 μM): 30%
A3-5, percentage of total carbonic anhydrase (carbonic anhydrase II [3]; time 2 min, [U]0 = 20 μM): 25%
A6-15, percentage of total carbonic anhydrase (carbonic anhydrase II [3]; time 2 min, [U]0 = 20 μM): 21%
M (monomer), percentage of total carbonic anhydrase (carbonic anhydrase II [3]; time 2 min, [U]0 = 20 μM): 22%
Large multimers, percentage of total carbonic anhydrase (carbonic anhydrase II [3]; time 2 min, [U]0 = 20 μM): 2%
A2, percentage of total carbonic anhydrase (carbonic anhydrase II [3]; time 20 min, [U]0 = 20 μM): 7%
A3-5, percentage of total carbonic anhydrase (carbonic anhydrase II [3]; time 20 min, [U]0 = 20 μM): 14%
A6-15, percentage of total carbonic anhydrase (carbonic anhydrase II [3]; time 20 min, [U]0 = 20 μM): 26%
M (monomer), percentage of total carbonic anhydrase (carbonic anhydrase II [3]; time 20 min, [U]0 = 20 μM): 54%
Large multimers, percentage of total carbonic anhydrase (carbonic anhydrase II [3]; time 20 min, [U]0 = 20 μM): −1%
A2, percentage of total carbonic anhydrase (carbonic anhydrase II [3]; time 38 min, [U]0 = 20 μM): 4%
A3-5, percentage of total carbonic anhydrase (carbonic anhydrase II [3]; time 38 min, [U]0 = 20 μM): 11%
A6-15, percentage of total carbonic anhydrase (carbonic anhydrase II [3]; time 38 min, [U]0 = 20 μM): 24%
M (monomer), percentage of total carbonic anhydrase (carbonic anhydrase II [3]; time 38 min, [U]0 = 20 μM): 62%
Large multimers, percentage of total carbonic anhydrase (carbonic anhydrase II [3]; time 38 min, [U]0 = 20 μM): −1%
A2, percentage of total carbonic anhydrase (carbonic anhydrase II [3]; time 1500 min, [U]0 = 20 μM): 0%
A3-5, percentage of total carbonic anhydrase (carbonic anhydrase II [3]; time 1500 min, [U]0 = 20 μM): 0%
A6-15, percentage of total carbonic anhydrase (carbonic anhydrase II [3]; time 1500 min, [U]0 = 20 μM): 19%
M (monomer), percentage of total carbonic anhydrase (carbonic anhydrase II [3]; time 1500 min, [U]0 = 20 μM): 80%
Large multimers, percentage of total carbonic anhydrase (carbonic anhydrase II [3]; time 1500 min, [U]0 = 20 μM): 1%

Monoclonal anti-insulin (10-130 clone M322214), Fitzgerald Industries (antibody)
ka/ka0 [4]: 0.27
Kd [5]: 2400 nM
Kd [6]: 1800 nM
kd/kd0 [7]: 1.6
koff [8]: 0.022 s⁻¹
kon [8]: 12000 M⁻¹ s⁻¹
ka/ka0 [9]: 0.91
koff [10]: 0.014 s⁻¹
kon [10]: 44000 M⁻¹ s⁻¹
kd/kd0 [11]: 6.7
koff [12]: 0.094 s⁻¹
kon [12]: 40000 M⁻¹ s⁻¹
Kd [13]: 320 nM
